Blank lines part the entries; values can stand above or below the compound they belong to.
How the values were obtained:
[1] = test system: Tyrosine-protein kinase ABL1 (Homo sapiens), P00519 [Q252H]; assay: Selectivity interaction (KinomeScan (DiscoverX)) EUB0000607a ABL1; conditions: at 10 µM
[2] = target: Rho-associated protein kinase 1 (Homo sapiens) (UniProt Q13464); assay: Selectivity interaction (ActivX KiNativ screen (ex vivo kinase selectivity in human PBMCs)) EUB0001619a ROCK1; assay type: cell-based; conditions: PBMC, at 1 µM
[3] = target: T1, Serine/threonine-protein kinase Nek3 (Homo sapiens) (UniProt P51956); assay: Selectivity interaction (KinomeScan (DiscoverX)) EUB0000595a NEK3; conditions: at 10 µM
T1 sequence (whole entry): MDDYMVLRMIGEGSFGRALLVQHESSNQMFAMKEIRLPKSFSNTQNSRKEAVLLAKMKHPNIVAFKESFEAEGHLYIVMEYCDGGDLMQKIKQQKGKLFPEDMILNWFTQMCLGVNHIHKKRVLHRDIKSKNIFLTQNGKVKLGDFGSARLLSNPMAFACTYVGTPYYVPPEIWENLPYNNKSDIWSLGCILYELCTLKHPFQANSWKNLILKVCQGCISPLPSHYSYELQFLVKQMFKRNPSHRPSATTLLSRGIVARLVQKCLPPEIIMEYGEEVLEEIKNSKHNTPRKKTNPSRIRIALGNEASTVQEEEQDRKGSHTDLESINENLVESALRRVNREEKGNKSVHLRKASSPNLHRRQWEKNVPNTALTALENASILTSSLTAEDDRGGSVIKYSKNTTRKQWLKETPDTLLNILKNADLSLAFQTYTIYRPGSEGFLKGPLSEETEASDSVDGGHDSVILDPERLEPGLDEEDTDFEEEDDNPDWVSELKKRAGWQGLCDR

[4] = target: DNA-dependent protein kinase catalytic subunit (Homo sapiens) (UniProt P78527); assay: Selectivity interaction (ActivX KiNativ screen (kinase selectivity in THP-1 cell lysates)) EUB0000639a PRKDC; assay type: subcellular; conditions: lysate
DNA-dependent protein kinase catalytic subunit (Homo sapiens), sequence (P78527 whole entry): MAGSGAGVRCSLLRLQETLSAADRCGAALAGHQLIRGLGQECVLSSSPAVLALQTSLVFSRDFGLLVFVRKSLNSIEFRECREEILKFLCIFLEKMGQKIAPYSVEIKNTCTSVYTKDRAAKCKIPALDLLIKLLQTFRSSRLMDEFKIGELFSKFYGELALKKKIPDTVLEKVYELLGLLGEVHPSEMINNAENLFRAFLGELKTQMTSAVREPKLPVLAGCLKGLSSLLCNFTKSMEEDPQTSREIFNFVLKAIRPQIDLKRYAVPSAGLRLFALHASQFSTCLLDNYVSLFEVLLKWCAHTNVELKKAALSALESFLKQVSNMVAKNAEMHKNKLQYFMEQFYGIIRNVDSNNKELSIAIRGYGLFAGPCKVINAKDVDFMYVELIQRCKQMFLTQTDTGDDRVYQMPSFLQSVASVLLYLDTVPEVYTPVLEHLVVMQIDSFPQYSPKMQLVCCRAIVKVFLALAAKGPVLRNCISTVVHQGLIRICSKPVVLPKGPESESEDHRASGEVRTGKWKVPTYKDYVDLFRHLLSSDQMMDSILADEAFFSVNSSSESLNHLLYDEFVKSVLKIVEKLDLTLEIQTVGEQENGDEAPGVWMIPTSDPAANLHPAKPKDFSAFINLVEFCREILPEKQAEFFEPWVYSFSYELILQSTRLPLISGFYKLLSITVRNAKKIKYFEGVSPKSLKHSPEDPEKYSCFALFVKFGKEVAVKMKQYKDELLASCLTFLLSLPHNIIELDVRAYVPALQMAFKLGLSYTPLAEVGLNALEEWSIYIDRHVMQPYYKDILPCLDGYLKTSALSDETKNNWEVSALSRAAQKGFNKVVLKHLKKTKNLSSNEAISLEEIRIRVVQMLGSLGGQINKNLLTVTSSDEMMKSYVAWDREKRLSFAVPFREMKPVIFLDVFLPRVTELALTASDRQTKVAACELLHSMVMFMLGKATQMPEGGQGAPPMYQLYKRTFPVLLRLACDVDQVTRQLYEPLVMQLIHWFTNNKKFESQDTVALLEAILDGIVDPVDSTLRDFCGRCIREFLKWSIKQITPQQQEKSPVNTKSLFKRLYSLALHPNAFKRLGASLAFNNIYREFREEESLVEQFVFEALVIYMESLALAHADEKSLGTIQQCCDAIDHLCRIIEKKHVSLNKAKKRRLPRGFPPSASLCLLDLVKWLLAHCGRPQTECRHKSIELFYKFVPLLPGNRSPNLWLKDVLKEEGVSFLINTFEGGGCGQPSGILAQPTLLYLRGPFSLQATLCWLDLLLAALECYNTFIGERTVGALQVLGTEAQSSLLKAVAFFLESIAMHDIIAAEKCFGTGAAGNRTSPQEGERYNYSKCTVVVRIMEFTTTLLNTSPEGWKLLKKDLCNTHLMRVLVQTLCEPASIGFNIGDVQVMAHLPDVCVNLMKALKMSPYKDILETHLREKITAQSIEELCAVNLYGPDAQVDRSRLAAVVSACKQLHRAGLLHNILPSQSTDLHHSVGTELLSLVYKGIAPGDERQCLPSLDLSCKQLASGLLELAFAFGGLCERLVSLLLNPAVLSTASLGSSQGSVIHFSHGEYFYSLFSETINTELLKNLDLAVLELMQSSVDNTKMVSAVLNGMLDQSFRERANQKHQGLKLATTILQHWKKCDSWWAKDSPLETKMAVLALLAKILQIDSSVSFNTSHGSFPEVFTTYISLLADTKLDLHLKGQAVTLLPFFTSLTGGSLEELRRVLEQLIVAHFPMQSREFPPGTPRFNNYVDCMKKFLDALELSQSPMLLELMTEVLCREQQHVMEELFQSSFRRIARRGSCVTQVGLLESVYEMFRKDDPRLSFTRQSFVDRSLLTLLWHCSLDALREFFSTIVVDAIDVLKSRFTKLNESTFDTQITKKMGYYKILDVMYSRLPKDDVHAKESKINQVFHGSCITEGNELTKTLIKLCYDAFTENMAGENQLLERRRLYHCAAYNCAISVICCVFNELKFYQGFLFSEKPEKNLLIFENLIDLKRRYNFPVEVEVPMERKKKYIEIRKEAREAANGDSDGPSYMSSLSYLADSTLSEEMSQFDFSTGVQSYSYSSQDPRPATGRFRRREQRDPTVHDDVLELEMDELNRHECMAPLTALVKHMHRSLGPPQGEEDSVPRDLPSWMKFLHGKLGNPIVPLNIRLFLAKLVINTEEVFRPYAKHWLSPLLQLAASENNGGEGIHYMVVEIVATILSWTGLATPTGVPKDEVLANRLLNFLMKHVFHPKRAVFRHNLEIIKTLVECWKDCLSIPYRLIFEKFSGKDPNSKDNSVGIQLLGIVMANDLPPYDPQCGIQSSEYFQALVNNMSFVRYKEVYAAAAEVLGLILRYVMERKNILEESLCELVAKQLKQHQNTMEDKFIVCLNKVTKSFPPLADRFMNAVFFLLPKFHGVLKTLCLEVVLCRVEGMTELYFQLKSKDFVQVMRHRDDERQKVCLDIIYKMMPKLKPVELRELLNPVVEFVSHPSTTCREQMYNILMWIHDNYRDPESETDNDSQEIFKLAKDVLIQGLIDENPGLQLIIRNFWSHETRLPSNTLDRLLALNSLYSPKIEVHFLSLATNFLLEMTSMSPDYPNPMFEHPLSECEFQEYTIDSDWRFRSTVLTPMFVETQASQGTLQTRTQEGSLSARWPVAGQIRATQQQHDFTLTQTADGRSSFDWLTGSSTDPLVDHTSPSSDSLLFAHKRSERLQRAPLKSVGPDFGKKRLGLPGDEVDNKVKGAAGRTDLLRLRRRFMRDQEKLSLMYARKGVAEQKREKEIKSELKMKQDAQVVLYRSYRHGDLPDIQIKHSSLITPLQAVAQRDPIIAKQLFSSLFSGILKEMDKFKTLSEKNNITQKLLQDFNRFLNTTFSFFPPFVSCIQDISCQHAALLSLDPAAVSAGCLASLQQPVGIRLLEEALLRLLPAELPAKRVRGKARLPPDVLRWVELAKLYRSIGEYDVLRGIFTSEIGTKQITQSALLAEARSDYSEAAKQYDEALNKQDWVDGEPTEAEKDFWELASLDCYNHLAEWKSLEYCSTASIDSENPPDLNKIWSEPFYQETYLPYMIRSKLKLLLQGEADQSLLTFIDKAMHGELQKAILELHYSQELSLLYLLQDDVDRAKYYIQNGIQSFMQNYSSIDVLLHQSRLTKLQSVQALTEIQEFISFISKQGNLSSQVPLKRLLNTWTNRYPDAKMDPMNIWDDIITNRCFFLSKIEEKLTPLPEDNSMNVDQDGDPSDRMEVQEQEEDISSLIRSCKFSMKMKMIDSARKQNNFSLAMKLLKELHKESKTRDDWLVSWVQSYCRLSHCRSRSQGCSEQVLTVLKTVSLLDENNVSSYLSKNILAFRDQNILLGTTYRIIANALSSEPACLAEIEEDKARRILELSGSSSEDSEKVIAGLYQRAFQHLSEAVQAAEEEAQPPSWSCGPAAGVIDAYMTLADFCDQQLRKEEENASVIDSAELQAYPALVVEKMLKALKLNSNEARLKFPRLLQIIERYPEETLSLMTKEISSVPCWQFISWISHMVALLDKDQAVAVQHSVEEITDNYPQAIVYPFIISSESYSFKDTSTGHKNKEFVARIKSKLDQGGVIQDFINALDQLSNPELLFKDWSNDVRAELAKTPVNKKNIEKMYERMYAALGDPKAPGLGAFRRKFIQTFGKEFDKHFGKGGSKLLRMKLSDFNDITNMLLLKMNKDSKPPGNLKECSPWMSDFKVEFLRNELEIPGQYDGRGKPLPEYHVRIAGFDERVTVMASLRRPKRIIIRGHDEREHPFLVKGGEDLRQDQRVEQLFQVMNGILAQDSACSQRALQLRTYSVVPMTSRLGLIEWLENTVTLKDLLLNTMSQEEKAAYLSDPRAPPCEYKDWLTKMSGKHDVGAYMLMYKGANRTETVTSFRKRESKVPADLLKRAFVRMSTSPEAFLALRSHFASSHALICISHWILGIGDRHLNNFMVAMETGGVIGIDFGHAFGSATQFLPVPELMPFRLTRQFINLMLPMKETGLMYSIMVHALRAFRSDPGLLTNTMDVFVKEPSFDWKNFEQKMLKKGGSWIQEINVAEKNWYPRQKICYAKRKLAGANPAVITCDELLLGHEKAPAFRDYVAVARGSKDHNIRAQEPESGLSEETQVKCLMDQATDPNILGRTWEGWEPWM

[5] = target: T2, Membrane-associated tyrosine- and threonine-specific cdc2-inhibitory kinase (Homo sapiens) (UniProt Q99640); assay: Selectivity interaction (KinomeScan (DiscoverX)) EUB0000229b PKMYT1; conditions: at 10 µM
T2 sequence (whole entry): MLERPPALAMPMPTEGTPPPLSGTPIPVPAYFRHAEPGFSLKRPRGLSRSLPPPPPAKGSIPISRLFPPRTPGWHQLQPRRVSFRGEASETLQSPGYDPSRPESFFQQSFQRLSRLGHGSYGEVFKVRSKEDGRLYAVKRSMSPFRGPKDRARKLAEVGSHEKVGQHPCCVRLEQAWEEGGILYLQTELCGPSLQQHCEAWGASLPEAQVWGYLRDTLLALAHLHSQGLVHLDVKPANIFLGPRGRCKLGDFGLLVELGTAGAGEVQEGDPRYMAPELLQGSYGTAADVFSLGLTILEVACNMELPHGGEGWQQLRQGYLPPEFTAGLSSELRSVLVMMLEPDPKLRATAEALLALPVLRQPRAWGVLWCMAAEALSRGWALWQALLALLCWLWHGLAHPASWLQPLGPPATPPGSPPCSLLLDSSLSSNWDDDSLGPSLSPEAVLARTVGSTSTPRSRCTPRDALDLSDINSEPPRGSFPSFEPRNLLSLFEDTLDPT

[6] = target: T3, Phosphatidylinositol 4,5-bisphosphate 3-kinase catalytic subunit delta isoform (Homo sapiens) (UniProt O00329); assay: Selectivity interaction (KinomeScan (DiscoverX)) EUB0000695a PIK3CD; conditions: at 100 nM
T3 sequence (whole entry): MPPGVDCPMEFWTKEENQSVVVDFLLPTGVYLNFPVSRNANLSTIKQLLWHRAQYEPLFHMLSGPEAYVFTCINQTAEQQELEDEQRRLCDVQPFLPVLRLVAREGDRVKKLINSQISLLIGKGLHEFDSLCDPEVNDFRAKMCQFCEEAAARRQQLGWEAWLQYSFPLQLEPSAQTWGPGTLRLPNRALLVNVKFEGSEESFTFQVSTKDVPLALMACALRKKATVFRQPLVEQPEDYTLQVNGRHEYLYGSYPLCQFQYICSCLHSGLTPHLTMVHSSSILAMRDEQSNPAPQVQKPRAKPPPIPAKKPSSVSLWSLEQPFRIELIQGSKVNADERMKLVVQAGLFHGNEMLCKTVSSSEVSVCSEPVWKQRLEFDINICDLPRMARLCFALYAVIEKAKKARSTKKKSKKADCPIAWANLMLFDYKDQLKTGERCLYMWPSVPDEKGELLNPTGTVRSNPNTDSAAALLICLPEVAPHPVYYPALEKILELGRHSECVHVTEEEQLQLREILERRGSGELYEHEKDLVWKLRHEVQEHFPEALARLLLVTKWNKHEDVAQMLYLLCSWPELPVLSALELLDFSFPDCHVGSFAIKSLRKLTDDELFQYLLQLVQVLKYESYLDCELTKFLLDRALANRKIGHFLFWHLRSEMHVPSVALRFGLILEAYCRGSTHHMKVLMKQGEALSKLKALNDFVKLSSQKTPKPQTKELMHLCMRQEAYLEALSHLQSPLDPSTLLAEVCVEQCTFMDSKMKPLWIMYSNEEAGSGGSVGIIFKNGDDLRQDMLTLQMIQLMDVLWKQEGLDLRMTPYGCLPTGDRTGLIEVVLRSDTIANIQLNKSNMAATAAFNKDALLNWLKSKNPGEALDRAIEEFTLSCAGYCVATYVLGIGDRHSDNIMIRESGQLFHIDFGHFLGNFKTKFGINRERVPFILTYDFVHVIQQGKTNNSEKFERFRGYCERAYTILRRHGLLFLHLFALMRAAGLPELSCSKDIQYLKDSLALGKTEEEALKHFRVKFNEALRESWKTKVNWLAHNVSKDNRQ

SMILES: CNC(=O)Nc1ccc(-c2nc(N3CC4CCC(C3)O4)c3cnn(C4CCC5(CC4)OCCO5)c3n2)cc1
% of control [1]: 100%

SMILES: N#Cc1cccc(-c2c[nH]c3ncnc(N4CCOCC4)c23)c1
% of inhibition [2]: 2%

SMILES: COCC(=O)NC/C=C/c1ccc2ncnc(Nc3ccc(Oc4ccc(C)nc4)c(C)c3)c2c1 [CP-724714]
% of control [3]: 95%

% of inhibition ([4]; at 0.01 µM): -17.9%
% of inhibition ([4]; at 0.04 µM): -5.4%
% of inhibition ([4]; at 0.2 µM): 5%
% of inhibition ([4]; at 1 µM): 12.5%
% of inhibition ([4]; at 5 µM): -1.4%
SMILES: CC[C@@H]1[C@H](F)C(=O)N[C@@H]1COc1nccc2cc(C(N)=O)c(OC)cc12 [ZIMLOVISERTIB]

SMILES: COc1cc(N(C)c2ccnc3ccc(C(F)(F)F)cc23)cc(OC)c1OC
% binding [5]: 94%

SMILES: Cc1cc(F)c(C(=O)Nc2cccc(-c3nncn3C(C)C)n2)cc1-n1cnc(C2CC2)c1
% of control [6]: 92%
